# US7265116B2, “Aryl and heteroaryl substituted tetrahydroisoquinolines and use thereof” (ARM Technology, Inc., priority 1999, dated 2007)
# Assays:
# [1] = cited from earlier work
# [2] = tested on: dopamine transporter protein over the norepinephrine transporter protein; conditions: selectivity for dopamine transporter over norepinephrine transporter; cited from earlier work
smiles,measurement,setting,value
CN1Cc2cc(-c3ccoc3)ccc2C(c2ccccc2)C1 (stereo not drawn),melting point,,188 to 189 °C (dec.)
CN1Cc2c(N)cccc2C(c2ccccc2)C1 (stereo not drawn) [Nomofensine],side effect of long term administration,[1],fatal immune hemolytic anemia
COC(=O)C(c1ccccc1)C1CCCCN1 (stereo not drawn) [Methylphenidate],DAT/NET Ki ratio,[2],0.1
